Assay results: US20230333109A1, “COMPOSITION FOR DIAGNOSING INFECTIOUS DISEASES COMPRISING AGENT FOR MEASURING EXPRESSION LEVEL OF SREBP2” (KOREA RESEARCH INSTITUTE OF BIOSCIENCE AND BIOTECHNOLOGY, priority 2020, published 2023)

System: HUVECs
Test: Vascular barrier destruction in HUVECs under LPS stimulation (FIG. 4G)
Type: cell-based

CCN(CC)Cc1ccc(C(=O)N(CCc2ccccc2OC)[C@@H]2CCNC2)cc1 [PF-429242]
vascular barrier destruction: inhibited vascular bather destruction
